{"source": "paper PMC7968666", "about": "“The pharmacokinetics and drug-drug interactions of ivermectin in Aedes aegypti mosquitoes” (PLoS Pathogens, 2021)", "key": {"Aedes aegypti mosquitoes [1]": {"tested_on": "Aedes aegypti mosquitoes", "details": "IVM 0.1, KCZ 5, RIF 10, RTV 10, PBO 10 μg/ml in blood; for Mosquito survival (%): 50 mosquitoes"}, "Ae. aegypti": {"tested_on": "Ae. aegypti", "parameters": "method as in PMID 20540931", "details": "single oral dose of 150 μg/kg; cited from earlier work"}, "Anopheles mosquitoes": {"tested_on": "Anopheles mosquitoes", "details": "cited from earlier work"}, "[2]": {"assay": "Mosquito dosing experiments: ivermectin recovered from single mosquitoes directly after membrane blood feeding (LC-MS/MS)", "format": "in vivo, Aedes aegypti", "experimental": "Drug stock solutions were prepared in DMSO and added to blank human blood at a ratio of 1:1000 so that the DMSO content was less than 0.2%. The mixtures were rotated at room temperature for 30 min to ensure a uniform drug distribution (Rotator Genie, Scientific Industries, Bohemia, USA). The sugar water within the mosquito cages was replaced by tap water 24 h prior to the PK experiments. Twelve hours later, the tap water was also removed to starve the mosquitoes. On the day of the PK experiment, 25–35 starved, female mosquitoes with an age of 6–7 days post-emergence were transferred with a mouth aspirator into 2 dl paper cups that were sealed with a piece of mosquito netting. […] A petri dish (35 mm x 10 mm, BD, Franklin Lakes, USA) was filled with 2.55 ml of warm blood, sealed with a piece of Parafilm (Parafilm M sealing film, Huberlab AG, Aesch, Switzerland) stretched over the rim and turned upside down on top of the paper cup. The mosquitoes were then feeding from blood through the netting and the Parafilm membrane. The feeding was conducted in a climate chamber (HPP110, Memmert GmbH + Co.KG, Schwabach, Germany) at 26° C, 70% humidity, and 50% light intensity. The photoperiod of the climate chamber and the insectary were synchronised. After 20 min of feeding, the cups were placed on ice to immobilise the mosquitoes and separate the fully engorged ones. […]\nThe first aim was to evaluate the variability of the blood uptake by the mosquitoes. […] The strength of the association was assessed using a linear regression model and its correlation coefficient R^2 using GraphPad prism software 9.0.0 (San Diego, USA). […]\nMosquito extracts were analysed using a modular ultra-high-pressure liquid chromatography (UPLC) system from Shimadzu (Kyoto, Japan) connected to an API 5500 QTRAP tandem mass spectrometer (AB Sciex, Massachusetts, USA). A previously developed and validated LC-MS/MS method for the quantification of ivermectin in human plasma and blood was used for the analyses. […]"}, "[3]": {"assay": "Pharmacokinetic and drug-drug interaction studies in blood-fed mosquitoes (concentration-time courses, population PK modelling)", "details": "for Ivermectin concentration in single mosquito: IVM (0.1 µg/ml) in human blood, Batch 4, individual mosquitoes, listed as IVM"}, "Aedes aegypti mosquitoes [4]": {"tested_on": "Aedes aegypti mosquitoes", "assay": "Drug effect on mosquito fertility (percentage of eggs hatched)", "format": "in vivo", "experimental": "The mixtures were rotated at room temperature for 30 min to ensure a uniform drug distribution (Rotator Genie, Scientific Industries, Bohemia, USA). […] Twelve hours later, the tap water was also removed to starve the mosquitoes. […] The mosquitoes were then feeding from blood through the netting and the Parafilm membrane. […] The photoperiod of the climate chamber and the insectary were synchronised. […] The engorged mosquitoes were either directly frozen at -20°C or returned to the climate chamber for certain time periods to assess the PK. […] Blood feeding was done as described above. […] In contrast to the PK experiments, the mosquitoes had unlimited access to water because a moistened oviposition substrate was inserted into the paper cup. […] Any hatched larva was counted and transferred to a rearing tray with a plastic pipette. The fertility was calculated as the percentage of eggs hatched. […] R Foundation for Statistical Computing, http://www.R-project.org, Vienna, Austria). Normality was assessed using the Shapiro-Wilk test. For normally distributed data (mortality, fecundity), group differences were assessed with one-way ANOVA testing, and, where applicable, followed up with Tukey's test. Group differences in fertility (not normally distributed) were evaluated with Kruskal-Wallis one-way analysis of variance, and Wilcoxon rank sum testing as post-hoc."}, "[5]": {"details": "ivermectin 0.1 μg/ml plus ritonavir 10 μg/ml in blood"}, "[6]": {"details": "non-parametric bootstrap analysis (n = 1’000)"}, "[7]": {"details": "100 eggs laid 48-96 h post-treatment, IVM 0.1, KCZ 5, RIF 10, RTV 10, PBO 10 μg/ml in blood"}}, "note": "Values joined by “and” are separate entries in the source; they are usually repeats but may differ in a detail not shown here. Equal entries are not always repeated. “Also recorded” adds a separate entry of the source. Where two headings read alike, the source gives them in different places.", "data": [{"smiles": "CCC(C)C1OC2(CCC1C)CC1CC(CC=C(C)C(OC3CC(OC)C(OC4CC(OC)C(O)C(C)O4)C(C)O3)C(C)C=CC=C3COC4C(O)C(C)=CC(C(=O)O1)C34O)O2", "note": "(stereo not shown) [ivermectin]", "values": [{"measurement": "Mosquito survival (%)", "setting": "Aedes aegypti mosquitoes [1]; 0 days post feeding", "value": 100, "unit": "%"}, {"measurement": "Mosquito survival (%)", "setting": "Aedes aegypti mosquitoes [1]; 1 day post feeding", "value": 100, "unit": "%"}, {"measurement": "four-day mosquito mortality", "setting": "Aedes aegypti mosquitoes [1]; four days, 3 batches of 50", "value": 17, "unit": "%"}, {"measurement": "Host blood concentration relative to LD50 against Ae. aegypti", "setting": "Ae. aegypti", "value": "≤ 10 % of the LD50"}, {"measurement": "Lethal concentration for Anopheles mosquitoes", "setting": "Anopheles mosquitoes", "value": "low nanomolar range"}, {"measurement": "Saturation of uptake over the dose range", "setting": "[2]; 0.01–1 μg/ml ivermectin in blood", "value": "no saturation was observed; also recorded: without showing saturation"}, {"measurement": "Dosing precision (%CV) of ivermectin, adjusted for mosquito weight", "setting": "[2]; 0.01–1 μg/ml ivermectin in blood, n = 30 mosquitoes per dose", "value": "less than 13.4%"}, {"measurement": "Ivermectin concentration per mosquito weight", "setting": "[2]; ivermectin dose 0.01 µg/ml in blood, directly after feeding, single mosquitoes 1-30", "value": "0.007 ng/mg and 0.009 ng/mg and 0.008 ng/mg and 0.010 ng/mg and 0.011 ng/mg"}, {"measurement": "zero-order elimination rate", "setting": "[3]; 0.1 μg/ml ivermectin in blood, pharmacometric modelling", "value": 5.5, "unit": "pg/h"}, {"measurement": "Course / extent of elimination from the mosquitoes", "setting": "[3]; IVM 0.1, KCZ 5, RIF 10, PBO 10 μg/ml in blood, up to 72 h", "value": "after 72 h only traces of ivermectin were still detectable"}, {"measurement": "Type of elimination kinetics in the mosquito", "setting": "[3]; IVM 0.1, KCZ 5, RIF 10, RTV 10, PBO 10 μg/ml in blood", "value": "zero-order elimination; also recorded: zero-order kinetics"}, {"measurement": "Ivermectin concentration in single mosquito", "setting": "[3]; 0 h post feeding", "value": "0.079 ng/mg msq (2×) and 0.077 ng/mg msq (2×) and 0.075 ng/mg msq and 0.084 ng/mg msq (2×) and 0.087 ng/mg msq and 0.089 ng/mg msq (2×) and 0.085 ng/mg msq and 0.088 ng/mg msq and 0.078 ng/mg msq (2×) and 0.083 ng/mg msq (4×) and 0.062 ng/mg msq and 0.074 ng/mg msq"}, {"measurement": "Ivermectin concentration in single mosquito", "setting": "[3]; 6 h post feeding", "value": "0.100 ng/mg msq (2×) and 0.086 ng/mg msq (2×) and 0.098 ng/mg msq and 0.092 ng/mg msq (2×) and 0.079 ng/mg msq and 0.085 ng/mg msq and 0.104 ng/mg msq and 0.082 ng/mg msq and 0.094 ng/mg msq and 0.083 ng/mg msq and 0.103 ng/mg msq (2×) and 0.160 ng/mg msq and 0.148 ng/mg msq and 0.096 ng/mg msq and 0.111 ng/mg msq and 0.113 ng/mg msq"}, {"measurement": "Ivermectin concentration in single mosquito", "setting": "[3]; 12 h post feeding", "value": "0.073 ng/mg msq and 0.065 ng/mg msq and 0.093 ng/mg msq (2×) and 0.095 ng/mg msq (2×) and 0.090 ng/mg msq (3×) and 0.085 ng/mg msq (2×) and 0.063 ng/mg msq and 0.087 ng/mg msq and 0.077 ng/mg msq and 0.104 ng/mg msq and 0.116 ng/mg msq and 0.103 ng/mg msq and 0.086 ng/mg msq and 0.098 ng/mg msq and 0.124 ng/mg msq"}, {"measurement": "Ivermectin concentration in single mosquito", "setting": "[3]; 24 h post feeding", "value": "0.073 ng/mg msq (2×) and 0.070 ng/mg msq (2×) and 0.074 ng/mg msq and 0.068 ng/mg msq and 0.090 ng/mg msq and 0.064 ng/mg msq (3×) and 0.067 ng/mg msq and 0.078 ng/mg msq and 0.055 ng/mg msq and 0.062 ng/mg msq and 0.058 ng/mg msq and 0.072 ng/mg msq and 0.056 ng/mg msq (2×) and 0.084 ng/mg msq and 0.057 ng/mg msq"}, {"measurement": "Ivermectin concentration in single mosquito", "setting": "[3]; 36 h post feeding", "value": "0.068 ng/mg msq (3×) and 0.044 ng/mg msq and 0.052 ng/mg msq and 0.090 ng/mg msq and 0.039 ng/mg msq and 0.038 ng/mg msq and 0.056 ng/mg msq and 0.053 ng/mg msq and 0.071 ng/mg msq and 0.060 ng/mg msq (2×) and 0.050 ng/mg msq and 0.036 ng/mg msq and 0.051 ng/mg msq and 0.062 ng/mg msq and 0.043 ng/mg msq and 0.037 ng/mg msq and 0.073 ng/mg msq"}, {"measurement": "IOV dose (inter-occasion variability), estimate", "setting": "[3]; final population PK model", "value": 0.11}, {"measurement": "Inter-individual variability (ω) of dose, estimate", "setting": "[3]; final population PK model", "value": 0.075}, {"measurement": "Inter-individual variability (ω) of kel, estimate", "setting": "[3]; final population PK model", "value": 0.25}, {"measurement": "kel (zero-order elimination rate), estimate", "setting": "[3]; final population PK model, 0.1 μg/ml ivermectin in blood", "value": 0.0055, "unit": "ng/h"}, {"measurement": "dose (amount absorbed from the blood meal), estimate", "setting": "[3]; final population PK model, 0.1 μg/ml ivermectin in blood, median mosquito weight 3.4 mg", "value": 0.28, "unit": "ng"}, {"measurement": "Amount of ivermectin imbibed per feeding, mean ± SD", "setting": "[3]; human blood spiked with 0.1 μg/ml ivermectin, four batches", "value": "0.36 ± 0.06", "unit": "ng"}, {"measurement": "Effect of ritonavir on the elimination rate of ivermectin", "setting": "[3]; [5]", "value": "not affected"}, {"measurement": "Increase of ivermectin exposure (AUC) compared to ivermectin alone", "setting": "[3]; [5]", "value": 29, "unit": "%"}, {"measurement": "IOV dose, bootstrap median", "setting": "[3]; [6]", "value": 0.11}, {"measurement": "Inter-individual variability (ω) of dose, bootstrap median", "setting": "[3]; [6]", "value": 0.075}, {"measurement": "Inter-individual variability (ω) of kel, bootstrap median", "setting": "[3]; [6]", "value": 0.25}, {"measurement": "Tlag, bootstrap median", "setting": "[3]; [6]", "value": 18.5, "unit": "h"}, {"measurement": "dose, bootstrap median", "setting": "[3]; [6]", "value": 0.28, "unit": "ng"}, {"measurement": "Tlag_add_rit, bootstrap median", "setting": "[3]; non-parametric bootstrap analysis (n = 1’000), ritonavir co-treatment", "value": 11.4, "unit": "h"}, {"measurement": "Mosquito fertility, Batch 1, hatching rate", "setting": "Aedes aegypti mosquitoes [4]; [7]", "value": 1, "unit": "%"}, {"measurement": "Mosquito fertility, Batch 2, hatching rate", "setting": "Aedes aegypti mosquitoes [4]; [7]", "value": 0, "unit": "%"}, {"measurement": "Mosquito fertility, Batch 3, hatching rate", "setting": "Aedes aegypti mosquitoes [4]; [7]", "value": 1, "unit": "%"}, {"measurement": "Effect on fertility of mosquito eggs", "setting": "Aedes aegypti mosquitoes [4]; ivermectin 0.1 μg/ml in blood", "value": "sterilised almost all mosquito eggs"}]}]}
